# Measured values taken from patent US20170165317A1, “METHOD FOR MITIGATING OR ALLEVIATING SYNAPTIC AND COGNITIVE DEFICITS” (Trustees of Dartmouth College, priority 2013, published 2017).
# Key:
# CA1 hippocampal region = experiment: LTP of fEPSPs in CA1 of acute hippocampal slices exposed to protofibrillar Aβ42; type: cell-based, mice; settings: 50 nM VO-OHpic 1 hour before addition of 1 μM Aβ42
# Procedure: Mice were anesthetized with sodium pentothal (20 mg/kg ip) and decapitated. The brain was rapidly removed to ice-cold, oxygenated, dissection solution. Coronal slices (300 μm) were made with a vibratome (LEICA VT1200S) and slices were moved to a recovery chamber containing aCSF at room temperature for at least 1.5 hour before recording.
# A concentric bipolar platinum-iridium stimulation electrode and a low-resistance glass recording microelectrode filled with aCSF (3-4 MΩ resistance) were placed in CA1 stratum radiatum to record the extracellular field excitatory postsynaptic potentials (fEPSPs). For each slice, an input-output curve was recorded to compare basal synaptic transmission at different conditions. This curve was also used to set the baseline fEPSP at ≈30% (for LTP experiments) or ≈50% (for LTD experiments) of maximal slope. Baseline stimulation was delivered every 15 seconds (0.01 ms duration pulses) for at least 20 minutes before beginning the experiment to ensure stability of the response. LTP was induced by using θ-burst stimulation (4 pulses at 100 Hz, with the bursts repeated at 5 Hz and each tetanus including three 10-burst trains separated by 15 seconds). LTD was induced using 900 pulses at 1 Hz. Responses were recorded for 1 hour after induction of LTP or LTD. […]
# Aβ42 = target: T1, Aβ42 (Homo sapiens, UniProt P05067); experiment: Thioflavin-T fluorescence assay of Aβ42 aggregation; type: biochemical; settings: 50 nM VO-OHpic or 15 nM bPV(HOpic), 37° C.
# T1 construct: Lyophilized Aβ42 peptide was purchased from Keck Facility at Yale University; purchased Keck Facility at Yale University; host or cells: synthetic peptide
# T1 sequence (P05067 672-713): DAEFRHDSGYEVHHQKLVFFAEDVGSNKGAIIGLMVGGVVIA
# Procedure: Freshly prepared Aβ42 was prepared as described for protofibrillar Aβ42. The Thioflavin-T (ThT) assay was carried out at 37° C., within a dark chamber in a 96-well plate. Each well contained 100 ng/μL of Aβ42, 20 μM ThT and 50 nM VO-OHpic or 15 nM bPV(HOpic). Fluorescence (λex=450 nm; λem=485 nm) was followed over time in a FLUOSTAR OPTIMA (BMG LabTech) fluorescence spectrophotometer. Samples were run in triplicates. […] Thus, the observed rescue of basal synaptic transmission, LTP and cognition, with VO-OHpic was not likely due to an altered aggregation state of Aβ upon PTEN inhibition.
# [1] = system: APPswe/lnd-EGFP infected neurons; experiment: APP expression, APP fragments and Aβ production/secretion in APPswe/lnd-infected slice cultures (ELISA, western blot); type: cell-based, rat; settings: slice cultures with or without PTEN inhibitor
# Procedure: (§1) Hippocampal slices overexpressing Aβ were maintained for 3 days after virus injection with or without the PTEN inhibitor VO-OHpic, before culture medium was collected for measurements. Aβ40 and Aβ42 level were determined in solubilized hippocampal fractions, cultured hippocampal slices or conditioned media by ELISA according to the manufacturer's instructions (WAKO/Invitrogen) that specifically detect the C-terminus of Aβ40 and Aβ42, respectively.
# Hippocampi from APP/PS1 mice or their wild-type littermates and organotypic hippocampal slices infected with APPswe/lnd-EGFP/APPwt-EGFP/APPMV-EGFP were solubilized, and extracts were prepared for western blot analysis. […] APPsα was detected in conditioned media of the respective slices using antibody 6E10 that selectively detects human APPsα. Levels of APP, CTFα and CTFβ were detected in lysates of the infected slices using APPCt antibody. […]
# However, this form of depression may in principle be due to Aβ exposure, to intracellular fragments derived from APP processing, or a combination thereof. To test the role of PTEN specifically in the effects of neuron-secreted Aβ, synaptic dysfunctions were monitored in untransfected cells neighboring APPswe/lnd-expressing neurons. […]
# APP/PS1 mice = experiment: Hippocampal APP, C-terminal fragments, Aβ monomers and SDS-resistant Aβ assemblies after in vivo treatment (western blot, ELISA); design: species or system mouse; settings: after VO-OHpic treatment, end of last behavioural test
# Procedure: as §1
# Hippocampi from APP/PS1 mice or their wild-type littermates and organotypic hippocampal slices infected with APPswe/lnd-EGFP/APPwt-EGFP/APPMV-EGFP were solubilized, and extracts were prepared for western blot analysis. Mouse brains or brain sections were homogenized on ice in RIPA buffer (1% TRITON X-100, 1% sodium deoxycholate, 0.1% SDS, 150 mM NaCl, 50 mM Tris-HCl, pH 7.2), using an ULTRATURRAX T25 (Janke & Kunkel). Samples were centrifuged at 15,000×g, and supernatants were used for protein determination. APPsα was detected in conditioned media of the respective slices using antibody 6E10 that selectively detects human APPsα. Levels of APP, CTFα and CTFβ were detected in lysates of the infected slices using APPCt antibody.
# After the end of the last test, the levels of APP and its C-terminal fragments (western blot), Aβ monomers (ELISA), and SDS-resistant. Aβ assemblies (SDS-PAE) were measured from the hippocampus of each mouse. […]
compound,measurement,setting,value
O=C(O)c1ncccc1O.O=C(O)c1ncccc1O.[O]=[V][O-] [VO-OHpic],LTP expression in presence of Aβ42,CA1 hippocampal region,rescued the expression of LTP
same,Aβ42 aggregation (ThT fluorescence),Aβ42,does not alter Aβ42 aggregation
same,"recombinant APP expression, formation of C-terminal APP fragments, Aβ production/secretion",[1],independent of VO-OHpic treatment
same,"levels of APP and its C-terminal fragments, Aβ monomers and SDS-resistant Aβ assemblies in hippocampus",APP/PS1 mice,No changes were detected
